Source: patent US5639906A, “Fluorescent and NMR sensitive pH indicators” (The United States of America as represented by the …, priority 1994, dated 1997)
“Also recorded” adds a separate entry of the source.

Columns and labels:
[1] = 19F NMR pH titration of fluorinated indicators; assay type: physicochemical; conditions: for pK (theoretical titration curve, FIG. 2): 19F shift as a function of pH; for δ1 (limiting 19F shift difference of theoretical curve, FIG. 2) / δ2 (limiting 19F shift difference of theoretical curve, FIG. 2): shift difference between the two fluorine resonances
Text: The sample also contained Sodium Flouride as an internal chemical shift standard.
The shift for 5F NEAP-1 is referenced to the tetrafluorophthalate ^19 F resonance, while the data for 5F NEAP-2 and 5F NEAP-3 correspond to the shift differences between the two fluorine resonances. The theoretical curves correspond to: δ1 =35.6 ppm, δ2 24.7 ppm, pK=6.85 for 5F NEAP-1; δ1 =10.3 ppm, δ2 =-0.8 ppm, pK=6.6 for 5F NEAP-2; and δ1 =24.1, δ2 =13.4, pK=6.8 for 5F NEAP-3.
The magnitude of this shift, however, is insignificant in comparison to the 11 ppm titration shift of the indicator. In any event, the magnitude of this shift may be determined and corrected. In alternate embodiments, for an indicator such as NEAP-3 which contain a second fluorine to serve as a chemical shift reference both fluorines will experience a similar intracellular shift, making correction unnecessary. There is also exchange broadening of the resonance, which becomes more significant at higher magnetic field strengths. In general, the degree of broadening depends on the dissociation rate constant of the proton from the indicator. This rate is dependent on the particular indicator, on the temperature, and on the composition of the solution in which the indicator is placed. […] If the exchange is sufficiently rapid on the NMR time scale, i.e., the dissociation rate constant of the protonated indicator k-1 >>πΔv/√ 2, where Δv is the chemical shift difference of the resonance under study between the protonated and unprotonated forms of the indicator, then the observed chemical shift can be used to determine the intracellular pH according to the relation: [formula] where pK is the pK of the indicator, δo is the observed chemical shift, and δU and δP are the shifts of the unprotonated and fully protonated forms of the indicator, respectively. Although the above equation is expected to be generally adequate, at very high fields and low temperatures, the exchange might become slow enough to require a correction, as described, for example, in London, J. Magn. Reson. Series A 104, 190-196 (1993).

human erythrocytes [2] = assay: pH measurement in human erythrocytes using 19F-NMR; assay type: cell-based
Method: (§1) FIGS. 3A and 3B show the ^19 F NMR spectra of human erythrocytes loaded with 5F NEAP-1 acetoxymethyl ester suspended in a solution containing 120 mM sodium chloride (NaCl) and 20 mM tris-[N-(2-hydroxyethyl)piperazine-N'-(2-ethanesulfonic acid)] ("tris-HEPES"). Tetrafluorophthalate ("TFPH") is also included as a chemical shift standard. […] The resonance associated with intracellular NEAP is denoted as "INTRA"; the resonance associated with extracellular NEAP is denoted as "EXTRA".
According to the present invention, intracellular pH can be determined using ^19 F NMR spectroscopy of cells containing a compound of Formula I or II. Measurements have been carried out on several physiological systems of interest, including, for example, human erythrocytes and perfused rat heart. The ^19 F NMR shifts of 5F NEAP-1, 5F NEAP-2, or 5F NEAP-3 provide information which is directly interpretable in terms of the cytosolic pH. These measurements can be made using any standard pulsed NMR spectrometer equipped with a fluorine NMR probe. Typically, at least 100 transients are required for the measurements.
III. pH Measurement in Human Erythrocytes Using ^19 F-NMR
(§2) As an illustration of the use of the current invention, the fluorinated indicator 5F NEAP-1 is used to determine the intra- and extracellular pH in a suspension of human erythrocytes. […] Based on the chemical shift difference between the NEAP fluorine resonance and the standard, an intracellular pH value of 7.3 for this preparation is determined. Subsequently, some additional 5F NEAP-1 was added as the free acid. […] It is interesting to note that the extracellular resonance is somewhat broader than the intracellular resonance. […] An extracellular pH value of 7.0 is determined from the shift (this situation is somewhat unusual since in more typical physiological preparations the intracellular pH is lower than the extracellular pH). As noted in the above sections, small errors which result from the intracellular shift displacement of 0.1-0.3 ppm, can be, but have not been accounted for. […]

human erythrocytes [3] = assay: Membrane crossing of extracellular indicator in human erythrocyte suspension (19F NMR); assay type: in vitro ADME; conditions: free acid added extracellularly
Method: as §1, §2

[4] = referenced to the tetrafluorophthalate 19F resonance

CCN(CC(=O)O)c1ccc(F)cc1OCC(=O)O [5F NEAP-1, N-ethyl-2-amino-5-fluorophenol-N,O-diacetic acid]
downfield 19F shift of the para-fluorine upon protonation of the nitrogen (titration shift) [1]: about 11 ppm | pK (theoretical titration curve, FIG. 2) [1]: 6.85 | pK ([1]; as stated in summary): 6.8 | δ1 (limiting 19F shift of theoretical curve, FIG. 2) [1, 4]: 35.6 ppm | δ2 (limiting 19F shift of theoretical curve, FIG. 2) [1, 4]: 24.7 ppm | extracellular pH determined with indicator (human erythrocytes [2]; free acid added to suspension, TFPH standard): 7.0 | difference between intra- and extracellular pH giving well resolved NMR resonances (human erythrocytes [2]; intracellular vs extracellular resonance): 0.3 pH unit | intracellular pH determined with indicator (human erythrocytes [2]; loaded 1 hour with acetoxymethyl ester, 120 mM NaCl, 20 mM tris-HEPES, TFPH standard): 7.3 | crossing of the cell membrane (human erythrocytes [3]): will not readily cross the cell membrane; also recorded: does not cross the cellular membrane in appreciable amounts

CCN(CC(=O)O)c1ccc(F)cc1OCc1ccc(C(=O)O)cc1F [5F NEAP-2, N-Ethyl-2-(2-fluoro-4-carboxybenzyloxy)-4-fluoroaniline-N-acetic acid]
pK (theoretical titration curve, FIG. 2) [1]: 6.6 | δ1 (limiting 19F shift difference of theoretical curve, FIG. 2) [1]: 10.3 ppm | δ2 (limiting 19F shift difference of theoretical curve, FIG. 2) [1]: -0.8 ppm

CCN(CC(=O)O)c1ccc(F)cc1OCCOc1ccc(N(CC(=O)O)CC(=O)O)cc1F [5F NEAP-3, 1-(N-Ethylamino-5-fluorophenoxy)-2-(2-fluoro-4-aminophenoxy)ethane, N,N',N'-triacetic acid]
pK (theoretical titration curve, FIG. 2) [1]: 6.8 | pH sensitivity of the fluorine resonances ([1]; FIG. 1): one of the fluorine resonances is pH sensitive, and the second is almost completely pH insensitive | δ1 (limiting 19F shift difference of theoretical curve, FIG. 2) ([1]; unit not given): 24.1 | δ2 (limiting 19F shift difference of theoretical curve, FIG. 2) ([1]; unit not given): 13.4
